Laboratory results published in paper PMC6118387, “In silico drug absorption tract: An agent-based biomimetic model for human oral drug absorption” (PLoS ONE, 2018).
Values joined by “and” are separate entries in the source; they are usually repeats but may differ in a detail not shown here. Identical values can stand only once. Like-named read-outs stand apart in the source and are kept apart here.

Key:
[1] = model drug parameter fixed to literature reported value; cited from earlier work
[2] = Clinical bioequivalence study: plasma concentrations (LC-MS-MS) and noncompartmental PK after oral tablet; type: in vivo, human
[3] = midazolam, literature referent value, cited from earlier work
[4] = Referent clinical, midazolam 15 mg tablet oral, N = 15, mean ±1 SD
[5] = human, plasma, Referent clinical, midazolam 15 mg tablet oral, N = 15, mean ±1 SD

Cc1ncc2n1-c1ccc(Cl)cc1C(c1ccccc1F)=NC2 [Midazolam, midazolam]
logP, In silico Logarithm of partition coefficient [1]: 3.6
CL/F [2, 4]: 57.72 ± 19.31 L/h
V/F [2, 4]: 205.20 ± 56.75 L
Tmax ([2]; Referent clinical, midazolam 15 mg tablet oral, N = 15, median): 30 min
Cmax ([2]; human, plasma, oral, 15 mg, midazolam, peak of the mean clinical concentration-time profile over 24 hours): 90.2 ng/mL
concentration at 0 h ([2]; human, plasma, po, 15 mg, midazolam 15 mg oral, plasma, mean (±1 SD) N=15, read-out: Concentration, Referent): 0 ng/mL
concentration at 0 h ([2]; human, plasma, po, 15 mg, midazolam 15 mg oral, plasma, one value per subject (columns A1-A8, B1-B7), read-out: Concentration, individual subjects): 0 ng/mL
concentration at 0.25 h ([2]; human, plasma, po, 15 mg, midazolam 15 mg oral, plasma, 0.25 h, mean (±1 SD) N=15, read-out: Concentration, Referent): 12.2 ± 14.4 ng/mL
concentration at 0.5 h ([2]; human, plasma, po, 15 mg, midazolam 15 mg oral, plasma, 0.5 h, mean (±1 SD) N=15, read-out: Concentration, Referent): 90.2 ± 47.6 ng/mL
concentration at 1 h ([2]; human, plasma, po, 15 mg, midazolam 15 mg oral, plasma, 1 h, mean (±1 SD) N=15, read-out: Concentration, Referent): 56.6 ± 22.6 ng/mL
concentration at 1.5 h ([2]; human, plasma, po, 15 mg, midazolam 15 mg oral, plasma, 1.5 h, mean (±1 SD) N=15, read-out: Concentration, Referent): 46.8 ± 12.5 ng/mL
concentration at 2 h ([2]; human, plasma, po, 15 mg, midazolam 15 mg oral, plasma, 2 h, mean (±1 SD) N=15, read-out: Concentration, Referent): 47.8 ± 19.1 ng/mL
concentration at 2.5 h ([2]; human, plasma, po, 15 mg, midazolam 15 mg oral, plasma, 2.5 h, mean (±1 SD) N=15, read-out: Concentration, Referent): 41.1 ± 15.1 ng/mL
concentration at 3 h ([2]; human, plasma, po, 15 mg, midazolam 15 mg oral, plasma, 3 h, mean (±1 SD) N=15, read-out: Concentration, Referent): 40.3 ± 26.1 ng/mL
concentration at 4 h ([2]; human, plasma, po, 15 mg, midazolam 15 mg oral, plasma, 4 h, mean (±1 SD) N=15, read-out: Concentration, Referent): 32.4 ± 21.1 ng/mL
concentration at 6 h ([2]; human, plasma, po, 15 mg, midazolam 15 mg oral, plasma, 6 h, mean (±1 SD) N=15, read-out: Concentration, Referent): 15.6 ± 9.4 ng/mL
concentration at 8 h ([2]; human, plasma, po, 15 mg, midazolam 15 mg oral, plasma, 8 h, mean (±1 SD) N=15, read-out: Concentration, Referent): 9.33 ± 5.73 ng/mL
concentration at 10 h ([2]; human, plasma, po, 15 mg, midazolam 15 mg oral, plasma, 10 h, mean (±1 SD) N=15, read-out: Concentration, Referent): 5.75 ± 4.06 ng/mL
concentration at 12 h ([2]; human, plasma, po, 15 mg, midazolam 15 mg oral, plasma, 12 h, mean (±1 SD) N=15, read-out: Concentration, Referent): 3.48 ± 2.75 ng/mL
concentration at 24 h ([2]; human, plasma, po, 15 mg, midazolam 15 mg oral, plasma, 24 h, mean (±1 SD) N=15, read-out: Concentration, Referent): 0.41 ± 0.63 ng/mL
AUC [2, 5]: 296 ± 126 ng·h/mL
Cmax [2, 5]: 101 ± 33 ng/mL
k el [2, 5]: 7.78e-05 s⁻¹
Concentration, individual subjects ([2]; midazolam 15 mg oral, plasma, 2.5 h, one value per subject (columns A1-A8, B1-B7)): 54.91 ng/mL and 40.38 ng/mL and 25.80 ng/mL and 40.78 ng/mL and 31.74 ng/mL and 48.76 ng/mL and 34.21 ng/mL and 20.63 ng/mL and 33.92 ng/mL and 30.24 ng/mL and 57.61 ng/mL and 24.84 ng/mL and 35.19 ng/mL and 58.33 ng/mL and 78.77 ng/mL
Concentration, individual subjects ([2]; midazolam 15 mg oral, plasma, 3 h, one value per subject (columns A1-A8, B1-B7)): 52.06 ng/mL and 27.73 ng/mL and 21.71 ng/mL and 25.74 ng/mL and 36.83 ng/mL and 69.41 ng/mL and 35.36 ng/mL and 17.14 ng/mL and 26.32 ng/mL and 22.37 ng/mL and 41.78 ng/mL and 21.67 ng/mL and 38.29 ng/mL and 47.32 ng/mL and 120.12 ng/mL
Concentration, individual subjects ([2]; midazolam 15 mg oral, plasma, 4 h, one value per subject (columns A1-A8, B1-B7)): 42.50 ng/mL and 20.80 ng/mL and 19.34 ng/mL and 20.60 ng/mL and 28.96 ng/mL and 77.03 ng/mL and 23.38 ng/mL and 14.36 ng/mL and 20.65 ng/mL and 15.37 ng/mL and 24.77 ng/mL and 22.90 ng/mL and 30.75 ng/mL and 41.37 ng/mL and 83.44 ng/mL
Concentration, individual subjects ([2]; midazolam 15 mg oral, plasma, 6 h, one value per subject (columns A1-A8, B1-B7)): 24.75 ng/mL and 8.47 ng/mL and 11.09 ng/mL and 8.46 ng/mL and 15.04 ng/mL and 29.67 ng/mL and 12.43 ng/mL and 6.69 ng/mL and 9.53 ng/mL and 10.09 ng/mL and 12.41 ng/mL and 7.25 ng/mL and 15.05 ng/mL and 24.91 ng/mL and 38.15 ng/mL
Concentration, individual subjects ([2]; midazolam 15 mg oral, plasma, 8 h, one value per subject (columns A1-A8, B1-B7)): 14.78 ng/mL and 4.58 ng/mL and 5.87 ng/mL and 3.98 ng/mL and 6.08 ng/mL and 15.63 ng/mL and 6.16 ng/mL and 4.20 ng/mL and 7.07 ng/mL and 8.11 ng/mL and 11.11 ng/mL and 3.58 ng/mL and 8.96 ng/mL and 17.42 ng/mL and 22.42 ng/mL
Concentration, individual subjects ([2]; midazolam 15 mg oral, plasma, 10 h, one value per subject (columns A1-A8, B1-B7)): 9.22 ng/mL and 2.05 ng/mL and 4.27 ng/mL and 2.24 ng/mL and 3.91 ng/mL and 8.93 ng/mL and 3.37 ng/mL and 2.53 ng/mL and 5.05 ng/mL and 3.40 ng/mL and 6.04 ng/mL and 1.38 ng/mL and 5.79 ng/mL and 13.69 ng/mL and 14.29 ng/mL
Concentration, individual subjects ([2]; midazolam 15 mg oral, plasma, 12 h, one value per subject (columns A1-A8, B1-B7)): 5.37 ng/mL and 1.26 ng/mL and 2.53 ng/mL and 1.54 ng/mL
F (absolute oral bioavailability) [3]: 31–72%
Fa × Fg [3]: 48–76%
Fh [3]: 36–57%
Fa × Fg ([3]; listed as midazolam): 48–76%
Fh ([3]; listed as midazolam): 36–57%
